From EP4707280A1, “1,4-CINEOLE DERIVATIVE AND INTERMEDIATE THEREOF, HERBICIDE CONTAINING SAID DERIVATIVE AS ACTIVE INGREDIENT, METHOD FOR USING HERBICIDE, AND METHOD FOR PREPARING AGROCHEMICAL COMPOSITION” (HOKKO CHEMICAL INDUSTRY CO., LTD., priority 2023, dated 2024)

tested on: Amaranthus viridis; experiment: Test Example 8: herbicidal effect test by stem and leaf treatment in upland field (low dose); type: in vivo; conditions: 7.5 g per 10 ares, sprayed seven days after sowing, upland soil, 14 days after application, read-out: weed inhibition rate
Method in brief: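 Post-emergence spray, 7 d after sowing: EC diluted in water, 100 L/10 a, 7.5 g a.i./10 a. Read-out: inhibition rate (%) at 14 d; n=2 per concentration.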

Row | Compound | inhibition at 75 g/ha [%]
1 | CC(C)[C@]12C[C@@H](OCc3ccccc3F)[C@](C)(CC1OCC1CC1)O2 (mixture of isomers) [1-921, (1S,2R,4R,SR)-5-(cyclopropylmethoxy)-2-[(2-fluorophenyl)methoxy]-1-methyl-4-isopropyl-7-oxabicyclo[2.2.1]heptane] | ≥ 80
2 | Cc1ccccc1CO[C@@H]1C[C@]2(C(C)C)O[C@@]1(C)C[C@@H]2F [1-2, (1R,2S,4S,5R)-2-fluoro-1-isopropyl-4-methyl-5-((2-methylbenzyl)oxy)-7-oxabicyclo[2.2.1]heptane] | ≥ 80
3 | C=CCO[C@@H]1C[C@]2(C)O[C@@]1(C(C)C)C[C@H]2OCc1ccccc1F [1-930, (1S,2R,4R,5R)-2-[(2-fluorophenyl)methoxy]-1-methyl-4-isopropyl-5-prop-2-enoxy-7-oxabicyclo[2.2.1]heptane] | ≥ 80
4 | C#CCO[C@@H]1C[C@]2(C)O[C@@]1(C(C)C)C[C@H]2OCc1ccccc1F [1-931, (1S,2R,4R,5R)-2-[(2-fluorophenyl)methoxy]-1-methyl-4-isopropyl-5-prop-2-ynoxy-7-oxabicyclo[2.2.1]heptane] | ≥ 80
